Assay results from patent US11839613B2, “Pyrimidine derivatives as PGE2 receptor modulators” (IDORSIA PHARMACEUTICALS LTD, priority 2017, dated 2023).

How the values were obtained:
[1] = target: EP2 (Homo sapiens (Human), UniProt P43116); experiment: hEP2 cAMP assay (SF295 glioblastoma cells, HTRF cAMP); type: cell-based; conditions: antagonistic activity
Procedure, shortened: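 PGE2-driven cAMP accumulation was measured by HTRF in SF295 cells, which express endogenous EP2 only. Cells in assay buffer with 2 mM IBMX were pre-incubated 45 min at RT, then incubated 30 min at RT. Detection used competition between cellular cAMP and d2-cAMP for a cryptate anti-cAMP antibody.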

[2] = target: EP4 (Homo sapiens (Human), UniProt P35408); experiment: hEP4 cAMP assay (BT549 breast cancer cells, HTRF cAMP); type: cell-based; conditions: antagonistic activity, PGE2 6 nM
Procedure, shortened: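 cAMP accumulation quantified by HTRF competition between cellular cAMP and d2-labeled cAMP for cryptate anti-cAMP antibody. Cells: endogenously EP4-expressing BT549, buffer with 2 mM IBMX; 45 min RT compound preincubation preceded 30 min RT challenge with PGE2 at 6 nM final.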

[3] = target: PTGER4 (EP4) (Homo sapiens (Human), UniProt P35408); experiment: cell-based
Sequence of PTGER4 (EP4) (P35408 whole entry): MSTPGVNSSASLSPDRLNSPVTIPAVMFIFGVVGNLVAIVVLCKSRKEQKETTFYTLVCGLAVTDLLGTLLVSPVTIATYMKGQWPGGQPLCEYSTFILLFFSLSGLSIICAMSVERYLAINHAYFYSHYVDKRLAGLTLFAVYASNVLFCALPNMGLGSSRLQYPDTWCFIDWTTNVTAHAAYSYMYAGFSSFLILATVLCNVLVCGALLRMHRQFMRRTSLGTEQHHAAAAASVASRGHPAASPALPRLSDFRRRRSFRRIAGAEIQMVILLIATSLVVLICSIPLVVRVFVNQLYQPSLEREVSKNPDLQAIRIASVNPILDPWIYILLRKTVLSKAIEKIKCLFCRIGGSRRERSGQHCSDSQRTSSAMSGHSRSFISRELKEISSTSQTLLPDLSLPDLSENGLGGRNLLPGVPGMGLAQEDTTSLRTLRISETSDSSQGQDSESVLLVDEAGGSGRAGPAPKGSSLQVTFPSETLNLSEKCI

Sequence of EP2 (P43116 whole entry): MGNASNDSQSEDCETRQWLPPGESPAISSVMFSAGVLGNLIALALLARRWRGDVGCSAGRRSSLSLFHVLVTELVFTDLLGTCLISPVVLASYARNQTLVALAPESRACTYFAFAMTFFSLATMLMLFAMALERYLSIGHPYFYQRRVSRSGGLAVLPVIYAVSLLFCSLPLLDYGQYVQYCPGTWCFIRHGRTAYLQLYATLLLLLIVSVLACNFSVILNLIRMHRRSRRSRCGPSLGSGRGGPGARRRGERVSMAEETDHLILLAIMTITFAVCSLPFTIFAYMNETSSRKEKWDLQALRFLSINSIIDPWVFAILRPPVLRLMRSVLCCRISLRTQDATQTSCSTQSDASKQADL
Sequence of EP4 (P35408 whole entry): as the sequence (P35408 whole entry) above

Row | Compound | IC50 [1] | IC50 [2] | IC50 [3]
1 | CSc1cc(-c2cc(NCCc3cc(F)c4c(c3)OCCO4)ncn2)ccc1C(=O)O [Ex 216] | 490 nM | 267 nM | 307 nM
2 | CCOc1cc(-c2cc(NCCc3cc4ccccc4cc3C)ncn2)ccc1C(=O)O [Ex 240, 2-Ethoxy-4-{6-[2-(3-methyl-naphthalen-2-yl)-ethylamino]-pyrimidin-4-yl}-benzoic acid] | 816 nM | 346 nM | 598 nM
3 | O=C(O)c1ccc(-c2cc(NCCc3ccc4c(c3)CCCO4)ncn2)cc1OC1CCC1 [Ex 266, 4-[6-(2-Chroman-6-yl-ethylamino)-pyrimidin-4-yl]-2-cyclobutoxy-benzoic acid] | 537 nM | 428 nM | 444 nM
4 | CSc1cc(-c2cc(NCCc3ccc4c(c3)OCCC4)ncn2)ccc1C(=O)O [Ex 285, 4-[6-(2-Chroman-7-yl-ethylamino)-pyrimidin-4-yl]-2-methylsulfanyl-benzoic acid] | 7520 nM | 513 nM | 341 nM
5 | CSc1cc(-c2cc(NCCc3cc(C)c4c(c3)OCCO4)ncn2)ccc1C(=O)O [Ex 292] | 688 nM | 538 nM | 1510 nM
6 | O=C(O)c1ccc(-c2cc(NCCc3ccc4c(c3)OCC4)ncn2)cc1OC1CCC1 [Ex 295] | 520 nM | 568 nM | 603 nM
7 | CCOc1cc(-c2cc(NCCc3ccc4scc(C)c4c3)ncn2)ccc1CC(=O)O [Ex 297] | 782 nM | 592 nM | 2120 nM
8 | CSc1cc(-c2cc(NCCc3ccc4c(c3)OCCO4)ncn2)ccc1C(=O)O [Ex 310] | 564 nM | 683 nM | 937 nM
9 | CCOc1cc(-c2cc(NCCc3ccc4occc4c3)ncn2)ccc1CC(=O)O [Ex 311, {4-[6-(2-Benzofuran-5-yl-ethylamino)-pyrimidin-4-yl]-2-ethoxy-phenyl}-acetic acid] | 538 nM | 685 nM | 310 nM
10 | CCOc1cc(-c2cc(NCCc3ccc4c(c3)OCCC4)ncn2)ccc1CC(=O)O [Ex 332, {4-[6-(2-Chroman-7-yl-ethylamino)-pyrimidin-4-yl]-2-ethoxy-phenyl}-acetic acid] | 12200 nM | 1510 nM | 415 nM
11 | CCOc1cc(-c2cc(NCCc3ccc4ccccc4c3)ncn2)sc1-c1noc(=O)[nH]1 [Example 345, 3-{3-Ethoxy-5-[6-(2-naphthalen-2-yl-ethylamino)-pyrimidin-4-yl]-thiophen-2-yl}-[1,2,4]oxadiazol-5(4H)-one] | 683 nM | 30 nM | 6 nM

Continued by falling IC50 [1], values first:

Row | IC50 [1] | IC50 [2] | IC50 [3] | Compound
12 | 486 nM | 129 nM | 202 nM | CSc1cc(-c2cc(NCCc3ccc4ccccc4c3)ncn2)ccc1C(=O)O [Ex 219, 2-Methylsulfanyl-4-[6-(2-naphthalen-2-yl-ethylamino)-pyrimidin-4-yl]-benzoic acid]
13 | 443 nM | 351 nM | 495 nM | CCOc1cc(-c2cc(NCCc3ccc4ccn(CC)c4c3)ncn2)sc1C(=O)O [Ex 242]
14 | 354 nM | 559 nM | 1180 nM | CSc1cc(-c2cc(NCCc3ccc4[nH]ccc4c3)ncn2)ccc1C(=O)O [Ex 319]
15 | 282 nM | 389 nM | 417 nM | CSc1cc(-c2cc(NCCc3ccc4c(c3)CCCO4)ncn2)ccc1C(=O)O [Ex 257, 4-[6-(2-Chroman-6-yl-ethylamino)-pyrimidin-4-yl]-2-methylsulfanyl-benzoic acid]
16 | 282 nM | 110 nM | 57 nM | CCOc1cc(-c2cc(NCCc3c(F)cc4ncccc4c3F)ncn2)sc1-c1noc(=O)[nH]1 [Example 346, 3-(5-{6-[2-(5,7-Difluoro-quinolin-6-yl)-ethylamino]-pyrimidin-4-yl}-3-ethoxy-thiophen-2-yl)-[1,2,4]oxadiazol-5(4H)-one]
17 | 274 nM | 654 nM | 610 nM | Cc1csc2ccc(CCNc3cc(-c4ccc(C(=O)O)c(OC5CCC5)c4)ncn3)cc12 [Ex 306]
